Assay results published in the NIST ThermoML archive (doi:10.1016/j.jct.2017.09.020).
± gives the expanded uncertainty stated by the source.

Conditions: Liquid, Ebulliometric method (Recirculating still)

| vapor or sublimation pressure (389.1 K) [kPa] | vapor or sublimation pressure (404.15 K) [kPa] | vapor or sublimation pressure (413.57 K) [kPa] | vapor or sublimation pressure (417.53 K) [kPa] | vapor or sublimation pressure (433.71 K) [kPa] | vapor or sublimation pressure (443.3 K) [kPa] | SMILES |
| --- | --- | --- | --- | --- | --- | --- |
| 2 ± 0.21 | 4 ± 0.42 | 6 ± 0.63 |  |  |  | CCCCCCCCCC(=O)OC [methyl decanoate] |
|  |  |  | 2 ± 0.21 | 4 ± 0.42 | 6 ± 0.63 | CCCCCCCCCCCC(=O)OC [methyl dodecanoate] |
